In patent US20230158005A1 (priority 2020, published 2023):
“And” between values parts separate entries of the source, which are not always exact repeats. Equal entries are not always repeated.

Tests used:
[1] = system: A/Solomon Islands/03/2006 (H1N1); assay type: cell-based, influenza A virus
A/Hawaii/15/2001 (H1N1) = assay type: cell-based, influenza A virus
[2] = system: A/California/07/2009 (H1N1); assay type: cell-based, influenza A virus
[3] = system: A/Minnesota/19/2011 (H1N1); assay type: cell-based, influenza A virus
[4] = system: A/New Jersey/8/1976 (H1N1); assay type: cell-based, influenza A virus
A/USSR/90/1977 (H1N1) = assay type: cell-based, influenza A virus
[5] = system: A/Puerto Rico/8/1934 (H1N1); assay type: cell-based, influenza A virus
[6] = system: A/New Caledonia/20/1999 (H1N1); assay type: cell-based, influenza A virus
A/Indiana/08/2011 (H3N2) = assay type: cell-based, influenza A virus
[7] = system: A/California/02/2014 (H3N2); assay type: cell-based, influenza A virus
A/Texas/71/2007 (H3N2) = assay type: cell-based, influenza A virus
A/Perth/16/2009 (H3N2) = assay type: cell-based, influenza A virus
A/Fujian/413/2002 (H3N2) = assay type: cell-based, influenza A virus
A/Alaska/140/2015 (H3N2) = assay type: cell-based, influenza A virus
[8] = system: A/Hong Kong/156/1997 (H5N1); assay type: cell-based, influenza A virus
[9] = system: A/Egypt/N6658/2011 (H5N1); assay type: cell-based, influenza A virus
[10] = system: A/Vietnam/1203/2004 (H5N1); assay type: cell-based, influenza A virus
[11] = system: A/Indonesia/05/2005 (H5N1); assay type: cell-based, influenza A virus
A/Anhui/1/2013 (H7N9) = assay type: cell-based, influenza A virus
[12] = system: panel of 20 influenza A viruses; assay type: cell-based, influenza A virus
NL4-3 WT HIV-1 virus = assay: Infectious HIV-1 released by infected MT-2 cells (TZM-bl luciferase reporter); assay type: cell-based; details: 10 nM, 48 hours
MT-2 human T cell line = assay: Cytotoxicity against uninfected MT-2 cells; assay type: cell-based; details: 1 µM, 48 hours
[13] = system: Nipah virus (Malaysian strain); assay: microbe, parasite or virus in culture; assay type: cell-based
[14] = system: A549 human lung carcinoma cells; details: human
in vitro [15] = details: human, % Dif (absorbance as percent relative to the vehicle control, relative viability)
in vitro [16] = details: human
[17] = system: relapsed/refractory, locally advanced or metastatic solid tumors; details: preliminary clinical results, cited from earlier work

SMILES: CC1=C(COCCC(C)(C)C)C(=O)N(Nc2ccc(C(F)(F)F)c(Cl)n2)C1=O [felezonexor, 3-[(3,3-dimethylbutoxy)methyl]-1-{[6-chloro-5-(trifluoromethyl) (2-pyridyl)]amino}-4-methylazoline-2,5-dione]
- Virus titer AVG [1]: 6.00 log10TCID50/mL and 7.17 log10TCID50/mL and 7.79 log10TCID50/mL
- Virus titer, replicates 1-3 [1]: 6.50 log10TCID50/mL and 6.75 log10TCID50/mL and 7.38 log10TCID50/mL and 5.75 log10TCID50/mL (2×) and 7.50 log10TCID50/mL (2×) and 8.50 log10TCID50/mL and 7.25 log10TCID50/mL
- Virus titer AVG (A/Hawaii/15/2001 (H1N1)): 2.67 log10TCID50/mL and 3.67 log10TCID50/mL and 4.83 log10TCID50/mL
- Virus titer, replicates 1-3 (A/Hawaii/15/2001 (H1N1)): 2.50 log10TCID50/mL and 3.75 log10TCID50/mL (2×) and 4.75 log10TCID50/mL (2×) and 2.75 log10TCID50/mL (2×) and 3.50 log10TCID50/mL and 5.00 log10TCID50/mL
- Virus titer AVG [2]: 2.75 log10TCID50/mL and 4.42 log10TCID50/mL and 5.42 log10TCID50/mL
- Virus titer, replicates 1-3 [2]: 3.25 log10TCID50/mL and 4.25 log10TCID50/mL and 5.50 log10TCID50/mL and 2.50 log10TCID50/mL (2×) and 4.50 log10TCID50/mL (2×) and 5.75 log10TCID50/mL and 5.00 log10TCID50/mL
- reduction in viral titers [2]: greater than 1.0 log10TCID50/mL
- Virus titer, replicates 1-3 [3]: 2.50 log10TCID50/mL and 6.75 log10TCID50/mL (2×) and 7.25 log10TCID50/mL (2×) and 3.25 log10TCID50/mL and 8.50 log10TCID50/mL and 2.75 log10TCID50/mL and 9.25 log10TCID50/mL
- reduction in viral titers [3]: greater than 1.0 log10TCID50/mL
- Virus titer AVG [4]: 3.67 log10TCID50/mL and 4.00 log10TCID50/mL and 4.17 log10TCID50/mL
- Virus titer, replicates 1-3 [4]: 3.75 log10TCID50/mL (3×) and 3.50 log10TCID50/mL (2×) and 4.25 log10TCID50/mL (3×) and 4.50 log10TCID50/mL
- reduction in viral titers [4]: greater than 1.0 log10TCID50/mL
- Virus titer, replicates 1-3 (A/USSR/90/1977 (H1N1)): 1.50 log10TCID50/mL (3×) and 5.25 log10TCID50/mL and 5.75 log10TCID50/mL (3×) and 4.25 log10TCID50/mL (2×)
- reduction in viral titers (A/USSR/90/1977 (H1N1)): greater than 1.0 log10TCID50/mL
- Virus titer AVG [5]: 3.42 log10TCID50/mL and 4.92 log10TCID50/mL
- Virus titer, replicates 1-3 [5]: 3.50 log10TCID50/mL (2×) and 3.25 log10TCID50/mL (3×) and 4.75 log10TCID50/mL and 4.50 log10TCID50/mL and 3.75 log10TCID50/mL and 5.50 log10TCID50/mL
- reduction in viral titers [5]: greater than 1.0 log10TCID50/mL
- Virus titer AVG [6]: 7.17 log10TCID50/mL and 6.83 log10TCID50/mL and 7.00 log10TCID50/mL
- Virus titer, replicates 1-3 [6]: 6.75 log10TCID50/mL (2×) and 7.25 log10TCID50/mL (2×) and 8.00 log10TCID50/mL and 6.50 log10TCID50/mL (3×) and 7.50 log10TCID50/mL
- reduction in viral titers [6]: no reduction in viral titers
- Virus titer, replicates 1-3 (A/Indiana/08/2011 (H3N2)): 3.25 log10TCID50/mL (2×) and 5.50 log10TCID50/mL (2×) and 6.75 log10TCID50/mL and 6.50 log10TCID50/mL and 7.50 log10TCID50/mL and 2.75 log10TCID50/mL and 8.50 log10TCID50/mL
- reduction in viral titers (A/Indiana/08/2011 (H3N2)): greater than 1.0 log10TCID50/mL
- Virus titer, replicates 1-3 [7]: 1.50 log10TCID50/mL (3×) and 5.25 log10TCID50/mL and 6.50 log10TCID50/mL (2×) and 4.75 log10TCID50/mL and 7.75 log10TCID50/mL and 4.50 log10TCID50/mL
- reduction in viral titers [7]: greater than 1.0 log10TCID50/mL
- Virus titer AVG (A/Texas/71/2007 (H3N2)): 2.50 log10TCID50/mL and 3.33 log10TCID50/mL and 3.92 log10TCID50/mL
- Virus titer, replicates 1-3 (A/Texas/71/2007 (H3N2)): 3.25 log10TCID50/mL (2×) and 4.00 log10TCID50/mL and 3.75 log10TCID50/mL (2×) and 2.75 log10TCID50/mL (2×) and 1.50 log10TCID50/mL and 4.25 log10TCID50/mL
- reduction in viral titers (A/Texas/71/2007 (H3N2)): greater than 1.0 log10TCID50/mL
- Virus titer, replicates 1-3 (A/Perth/16/2009 (H3N2)): 2.25 log10TCID50/mL and 3.50 log10TCID50/mL (2×) and 4.75 log10TCID50/mL and 1.50 log10TCID50/mL and 4.25 log10TCID50/mL (2×) and 2.50 log10TCID50/mL and 3.25 log10TCID50/mL
- Virus titer AVG (A/Fujian/413/2002 (H3N2)): 3.25 log10TCID50/mL and 3.50 log10TCID50/mL
- Virus titer, replicates 1-3 (A/Fujian/413/2002 (H3N2)): 3.00 log10TCID50/mL and 3.25 log10TCID50/mL (3×) and 3.50 log10TCID50/mL (2×) and 3.75 log10TCID50/mL (2×) and 2.75 log10TCID50/mL
- reduction in viral titers (A/Fujian/413/2002 (H3N2)): no reduction in viral titers
- Virus titer, replicates 1-3 (A/Alaska/140/2015 (H3N2)): 1.50 log10TCID50/mL (4×) and 6.50 log10TCID50/mL and 2.50 log10TCID50/mL and 7.00 log10TCID50/mL and 2.25 log10TCID50/mL and 6.25 log10TCID50/mL
- reduction in viral titers (A/Alaska/140/2015 (H3N2)): greater than 1.0 log10TCID50/mL
- Virus titer AVG [8]: 2.42 log10TCID50/mL and 3.58 log10TCID50/mL and 4.50 log10TCID50/mL
- Virus titer, replicates 1-3 [8]: 2.25 log10TCID50/mL (2×) and 3.50 log10TCID50/mL (2×) and 4.25 log10TCID50/mL and 2.75 log10TCID50/mL and 4.75 log10TCID50/mL and 3.75 log10TCID50/mL and 4.50 log10TCID50/mL
- reduction in viral titers [8]: greater than 1.0 log10TCID50/mL
- Virus titer AVG [9]: 4.08 log10TCID50/mL and 4.33 log10TCID50/mL and 4.92 log10TCID50/mL
- Virus titer, replicates 1-3 [9]: 4.00 log10TCID50/mL and 4.25 log10TCID50/mL (2×) and 5.50 log10TCID50/mL and 4.50 log10TCID50/mL (3×) and 3.75 log10TCID50/mL and 4.75 log10TCID50/mL
- reduction in viral titers [9]: greater than 1.0 log10TCID50/mL
- Virus titer AVG [10]: 6.58 log10TCID50/mL and 8.50 log10TCID50/mL and 8.17 log10TCID50/mL
- Virus titer, replicates 1-3 [10]: 6.50 log10TCID50/mL (2×) and 8.25 log10TCID50/mL (2×) and 8.50 log10TCID50/mL and 6.75 log10TCID50/mL and 7.75 log10TCID50/mL (2×) and 9.50 log10TCID50/mL
- reduction in viral titers [10]: greater than 1.0 log10TCID50/mL
- Virus titer AVG [11]: 4.83 log10TCID50/mL and 6.92 log10TCID50/mL and 7.58 log10TCID50/mL
- Virus titer, replicates 1-3 [11]: 4.50 log10TCID50/mL and 6.50 log10TCID50/mL and 7.50 log10TCID50/mL (3×) and 5.25 log10TCID50/mL and 6.75 log10TCID50/mL and 4.75 log10TCID50/mL and 7.75 log10TCID50/mL
- reduction in viral titers [11]: greater than 1.0 log10TCID50/mL
- Virus titer AVG (A/Anhui/1/2013 (H7N9)): 1.50 log10TCID50/mL and 2.50 log10TCID50/mL and 2.67 log10TCID50/mL
- Virus titer, replicates 1-3 (A/Anhui/1/2013 (H7N9)): 1.50 log10TCID50/mL (3×) and 2.25 log10TCID50/mL and 2.75 log10TCID50/mL (3×) and 2.50 log10TCID50/mL (2×)
- reduction in viral titers (A/Anhui/1/2013 (H7N9)): greater than 1.0 log10TCID50/mL
- strains with viral titers reduced at least 3-fold compared to untreated controls [12]: 17 out of 20 strains
- strains with viral titers reduced at least 10-fold compared to untreated controls [12]: 13 out of 20 strains
- reduction of the production of infectious virus (NL4-3 WT HIV-1 virus): more than 50%
- MT-2 cells killed (MT-2 human T cell line): about 50%
- selectivity index (SI, CC50/EC50) [13]: 12
- EC50 ([13]; Henipavirus nipahense, HeLa, 48 h, read-out: EC50 (compound concentration that reduces viral replication by 50%)): 20 nM
- tolerated concentration (relative viability equivalent or greater than untreated controls) [14]: up to 100 nM
- % Dif (absorbance as percent relative to the vehicle control, relative viability) ([14]; 0.5 µM): 71.6%
- viability at 0.05 µM (in vitro [15]): 101%
- viability at 0.1 µM (in vitro [15]): 125%
- viability at 0.25 µM (in vitro [15]): 66.2%
- viability at 0.5 µM (in vitro [15]): 71.6%
- viability at 1 µM (in vitro [15]): 58.7%
- CC50 (in vitro [16]): 240 nM
- Safety and tolerability ([17]; 57 patients with solid tumors): manageable
- most common treatment related adverse events ([17]; 57 patients with solid tumors): gastrointestinal (nausea, vomiting, and diarrhea) and constitutional (fatigue, decreased appetite)
- antitumor activity ([17]; 57 patients, heavily pre-treated solid tumors): durable responses, including a partial response
